Source: publication PMC9098524, “Structural basis of ion – substrate coupling in the Na^+-dependent dicarboxylate transporter VcINDY” (Nature Communications, 2022)

Biological target: T1, VcINDY (Vibrio cholerae, UniProt Q9KNE0)
T1 construct: gene VC_A0025
Assay: intrinsic tryptophan fluorescence quenching ([…] nm excitation, […] nm emission), quadratic binding fit
Conditions: read-out: apparent Kd

O=C(O)CCC(=O)O [succinate]
Kd: 92.2 ± 47.4 µM
